How the values were obtained:
[1] = test system: Arabidopsis thaliana roots; assay: RNA-Seq of roots of diacetyl vapor exposed Arabidopsis seedlings; assay type: in vivo
Experimental: In order to understand the molecular changes occurring with the volatile exposure and possibly underlying this developmental phenotype, an RNA-Seq analysis of the roots in diacetyl exposed vs control was performed. A large number of differentially expressed genes (DEGs) was found in the roots of the diacetyl vapor exposed Arabidopsis. 5197 differentially expressed genes (DEGs) (false discovery rate, FDR<0.05) were identified in the root transcriptome of diacetyl-exposed seedlings compared to control.
A. thaliana plants (Col-0) were grown in an Agar medium were synchronized to germinate using pre-treatment in cold. Exposure experiments were started using plants the plates when they were 11 days old and placed in a 10-gallon glass aquarium as a chamber along with a petri dish containing 1 ml of chemical dissolved in PO or PO alone were placed at the other side of the container. After the desired exposure, the roots were separated, and a Trizol-based RNA isolation was carried out as above. Two biological replicates were performed for each condition, with an average of 68,355,820 reads/replicate, with an average of 95% mapped. Multiplexed libraries were made from total RNA input using the Illumina TruSeq RNA sample preparation kit (v2) and 50 bps single-end sequencing was done using the NextSeq500.

[2] = test system: A. thaliana plants (Col-0); assay: Cold tolerance assay; assay type: in vivo, Arabidopsis thaliana; conditions: cold treatment to -10° C., scored after 5 days; controls ~30%
Experimental: HDACs have also been implicated in responses to a number of abiotic stresses, such as temperature, drought, salt, etc in a variety of ways (M. Luo, et al., Frontiers in Plant Science 8, (2017)). One of the phenotypes that can be rapidly tested in a laboratory is tolerance to cold temperatures in Arabidopsis. […] The yellowing of leaves was determined after 5 days and the controls ˜30% of the leaves turned yellow-brown in the classic cold response previously documented.
Twenty six day old A. thaliana plants (Col-0), that had been transplanted at day 7 to soil, were cold-acclimatized the plants for 7 days at 4° C., and then transferred to respective odor exposure chambers with a petridish containing 2 ml of chemical dissolved in PO or PO alone in a freezing chamber in which temperatures went down every 2° C. for 0.5 h and maintained for 1 hour, and it dropped up to −10° C. […] The survival rate was determined after 5 days. […] One-way analysis of Variance (ANOVA) between groups was performed for plant exposure quantitative data using Graph Pad Prism 9.

[3] = test system: PC3 Cancer cell line; assay: Cancer cell viability assay, PC3; assay type: cell-based
Experimental: Cells were maintained in a 37° C. incubator with 5% CO2 throughout the experiment. Compound stocks were dissolved in 10% DMSO, but final concentrations were made fresh in complete media as needed. 10% DMSO solvent was used as control in complete media. Cells were seeded onto 12-well plates and allowed 12-24 hours until treatment began to allow cells to adhere to wells. This was followed by minimum 5-day treatment of compounds, changing the media with treatment every 48 hours. Cell lines A549, PC3, and SK-MEL-5 were seeded at 8000 cells/well which would provide 80-100% confluency after 6-day growth. SH-SY5Y was seeded at 8000 cells/well then 16,000 cells/well due to slower growth and given at least 10 days for sufficient growth. After allotted growth times, cell counts were performed via Countess™ automated cell counter. All assays were completed with a minimum of triplicate replicates for all conditions and analyzed through GraphPad Prism One-way ANOVA for significance.

[4] = test system: mouse brain; assay: Brain RNA-seq of mice exposed to diacetyl vapors; assay type: in vivo; conditions: 5 days
Excerpt: HDAC inhibitors are an important class of drugs being tested for a number of different conditions including neurodegenerative diseases and brain cancers. A major design challenge for such drugs is the ability to cross the blood-brain barrier. An interesting possibility that arises due to the volatility and small size of odorants is that they could diffuse through the intranasal route to the brain directly. To test whether cells in the brain respond to diacetyl vapors by altering gene expression RNA-seq experiments were carried out on mice exposed only to aroma of diacetyl for 5 days. Littermate controls were exposed in a similar manner to the solvent (PO) headspace.
The DEGs from the diacetyl-exposed mouse brain transcriptome for several of these key genes were evaluated.

[5] = 0.1% headspace, |log2 fold-change|>1, FDR<0.05
[6] = 1% headspace, |log2 fold-change|>1, FDR<0.01

## CC(=O)C(C)=O [2,3-butanedione]
[1]; 1% (v/v) headspace, 7 days, FDR<0.05
  differentially expressed genes (DEGs) in the root transcriptome: 5197 genes
[1]; log2 fold-change<-1, FDR<0.05
  significantly down-regulated genes in roots: 2572 genes
[1]; log2 fold-change>1, FDR<0.05
  significantly up-regulated genes in roots: 2625 genes
[2]
  yellow leaves after freezing: ~20%
[3]
  inhibition of prostate cancer (PC3) cell line, summary: has potential in inhibiting
[3]; 33 uM, triplicates
  changes in proliferation, PC3: No Significant changes in proliferations
[4]; [5]
  down regulated genes in mouse brain: 32 genes
  up-regulated genes in mouse brain: 49 genes
[4]; [6]
  down regulated genes in mouse brain: 1031 genes
  up-regulated genes in mouse brain: 748 genes
[4]; exposed mice of FIG. 22B (1%)
  Alk expression in mouse brain: significantly downregulated
  ERCC6L2 expression in mouse brain: significantly downregulated
  MycN expression in mouse brain: significantly downregulated
  NCAN expression in mouse brain: significantly downregulated
  STK33 expression in mouse brain: significantly downregulated
[4]; inhaled vapors, 0.1% or 1% solution headspace
  gene expression in the mouse brain (RNA-seq), in words: changes in expression of a number of genes, in a dose dependent manner
